From patent US10610863B2, “Automatic microfluidic system for antibiotic susceptibility testing and method of operating thereof” (NATIONAL TSING HUA UNIVERSITY, priority 2016, dated 2020)
In brackets after ≈: the same amount, converted by molar mass.

Key:
[1] = tested on: vancomycin-intermediate Staphylococcus aureus (VISA); test: Microfluidic system of Embodiment 2 combination susceptibility testing (Test 6); assay type: cell-based; settings: for minimum inhibitory concentration alone (denominator of the FIC equation): antibiotic alone; for minimum inhibitory concentration in combination (vancomycin + ceftazidime): colorimetric, 24 hours of incubation at 37° C.
Description: In Test 6, vancomycin-intermediate Staphylococcus aureus (VISA) is designed as a bacterial suspension to be tested, and two antibiotic solutions, that is, vancomycin and ceftazidime, with different concentrations are prepared. In details, the two antibiotic solutions are transported, separately, to each of the second reaction chambers 124a′, 124b′, 124c′, 124d′, 124e′, 124f′, 124g′, 124h′, 124i′, 124j′, 124k′ to mix with the broth and the bacterial suspension to be tested. Then, concentrations of vancomycin of the second reaction chambers 124a′, 124b′, 124c′, 124d′, 124e′, 124f′, 124g′, 124h′, 124i′, 124j′, 124k′ are 4 μg/mL, 6 μg/mL, 4 μg/mL, 4 μg/mL, 4 μg/mL, 0 μg/mL, 6 μg/mL, 6 μg/mL, 2 μg/mL, 2 μg/mL and 2 μg/mL, respectively. Furthermore, concentrations of ceftazidime of the second reaction chambers 124a′, 124b′, 124c′, 124d′, 124e′, 124f′, 124g′, 124h′, 124i′, 124j′, 124k′ are 2 μg/mL, 2 μg/mL, 4 μg/mL, 6 μg/mL, 0 μg/mL, 4 μg/mL, 6 μg/mL, 4 μg/mL, 6 μg/mL, 4 μg/mL and 2 μg/mL, respectively. In addition, a proper pH indicator, such as phenol red, is added to the broth in Test 6. After incubation at 37° C. for 24 hours, results can be visually observed.
In particular, incubation times from FIG. 10(a) to FIG. 10(d) are 0 hour, 10 hours, 17 hours and 24 hours.
Then, a fractional inhibitory concentration index of the two antibiotic solutions for the vancomycin-intermediate Staphylococcus aureus can be derived from the following equation: FICindex=FICA+FICB. FICA is calculated as a quotient between the minimum inhibitory concentration of vancomycin in combination and the minimum inhibitory concentration of vancomycin alone, and FICB is calculated as a quotient between the minimum inhibitory concentration of ceftazidime in combination and the minimum inhibitory concentration of ceftazidime alone. In particular, the combination can be determined as synergic when the fractional inhibitory concentration index is ≤0.5, as antagonistic when the fractional inhibitory concentration index is >4. The results between synergy and antagonistic tendency are defined as additive or indifferent.

[2] = tested on: standard strain Enterococcus 29212 (ATCC); test: E-Test MIC, standard strain Enterococcus 29212 (Test 1); assay type: cell-based, E. faecalis; settings: incubation time 24 hours
Description: In Test 1, a standard strain Enterococcus 29212, which includes E. faecalis and is purchased from American type culture collection (ATCC), is designed as a bacterial suspension to be tested. The standard strain Enterococcus 29212 is susceptible Enterococcus, and a minimum inhibitory concentration of the standard strain Enterococcus 29212 detected by a clinical standard (i.e., E-Test®) is 4 μg/mL. In particular, the antibiotic solution of Test 1 is a vancomycin-containing solution.

E. faecium (vanA) [3] = test: E-Test MIC, vancomycin-resistant Enterococcus vanA (Test 2); assay type: cell-based; settings: incubation time 24 hours
Description: (§1) In Test 2, the antibiotic solution, the dilution mode and the operation of the microfluidic system are the as Test 1. However, a bacterial suspension to be tested of Test 2 is the bacterial suspension containing E. faecium (vancomycin-resistant Enterococcus). In particular, a genotype of the vancomycin-resistant Enterococcus in Test 2 is vanA, and a minimum inhibitory concentration thereof is determined by the conventional method (E-Test®) to be 32 μg/mL.

E. faecium (vanB) [4] = test: E-Test MIC, vancomycin-resistant Enterococcus vanB (Test 3); assay type: cell-based; settings: incubation time 24 hours
Description: as §1, with “3,” for “2,”, “3” for “2”, “vanB,” for “vanA,”, “8” for “32”

E. gallinarum (vanC1) [5] = test: E-Test MIC, vancomycin-resistant Enterococcus vanC1 (Test 4); assay type: cell-based; settings: incubation time 24 hours
Description: as §1, with “4,” for “2,”, “4” for “2”, “gallinarum” for “faecium”, “vanC1,” for “vanA,”, “3” for “32”, “μg/mL. The incubation time and the determined minimum inhibitory concentration of E. gallinarum (vanC1) in Test 4 are listed in Table 1.” for “μg/mL.”

E. casseliflavus (vanC2) [6] = test: E-Test MIC, vancomycin-resistant Enterococcus vanC2 (Test 5); assay type: cell-based; settings: 24 h, read-out: MIC (E-test)
Description: (§2) In Test 5, the antibiotic solution, the dilution mode and the operation of the microfluidic system are the as Test 1. However, a bacterial suspension to be tested of Test 5 is the bacterial suspension containing E. casseliflavus (vancomycin-resistant Enterococcus). In particular, a genotype of the vancomycin-resistant Enterococcus in Test 4 is vanC2, and a minimum inhibitory concentration thereof is determined by the conventional method (E-Test®) to be 4 μg/mL. The incubation time and the determined minimum inhibitory concentration of E. casseliflavus (vanC2) in Test 5 are listed in Table 1.

[7] = tested on: standard strain Enterococcus 29212 (ATCC); test: Microfluidic system of Embodiment 1 antibiotic susceptibility testing (Test 1); assay type: cell-based, E. faecalis; settings: for MIC: Enterococcus
Description: In Test 1, a standard strain Enterococcus 29212, which includes E. faecalis and is purchased from American type culture collection (ATCC), is designed as a bacterial suspension to be tested. […] In particular, the antibiotic solution of Test 1 is a vancomycin-containing solution.
As to the determination of the minimum inhibitory concentration, a quantitative dye can be added into each of the first reaction chamber 122, the second reaction chamber 124a, the second reaction chamber 124b, the second reaction chamber 124c, and the second reaction chamber 124d as mentioned above. After few minutes, an upright fluorescent microscope is applied for determining fluorescent staining results as shown in FIG. 8. In details, the fluorescent staining results of the first mixing solution and each of the second mixing solutions (that is, the concentration of the antibiotic solution is 0 μg/mL, 2 μg/mL, 4 μg/mL, 6 μg/mL and 8 μg/mL, respectively) are shown, separately, from FIG. 8 (a) to FIG. 8 (e).
Alternatively, a proper pH indicator, such as phenol red, also can be added to the broth as a determination method. In details, a pH-dependent colorimetric broth, which includes brain heart infusion (BHI) media supplemented with 1% glucose and 0.05% phenol red, and antibiotics, are loaded. Then, the standard strain Enterococcus 29212 is loaded as the bacteria suspension to be tested herein for the antibiotic susceptibility testing. […] In particular, incubation times from FIG. 9(a) to FIG. 9(f) are 0 hour, 4 hours, 10 hours, 20 hours, 23 hours, and 24 hours.
The pH-dependent colorimetric broth will be transformed into an acidic pH due to bacterial growth, and the phenol red can be visually observed through color change from red to yellow.

E. faecium (vanA) [8] = test: Microfluidic system of Embodiment 1 antibiotic susceptibility testing (Test 2); assay type: cell-based; settings: Enterococcus faecium, incubation time 24 hours
Description: (§3) Briefly, five different concentrations of antibiotic solutions (0 μg/mL, 2 μg/mL, 4 μg/mL, 6 μg/mL, and 8 μg/mL) are prepared, separately, by the microfluidic system of Embodiment 1 of the present disclosure with the proportional dilution mode. Then, the antibiotic solutions are mixed with the bacteria suspensions at a final concentration of 5×10^5 CFU/mL. The determination of the minimum inhibitory concentration is read after incubation at 37° C. for 24 hours.
(§4) Alternatively, a proper pH indicator, such as phenol red, also can be added to the broth as a determination method. In details, a pH-dependent colorimetric broth, which includes brain heart infusion (BHI) media supplemented with 1% glucose and 0.05% phenol red, and antibiotics, are loaded. Then, the standard strain Enterococcus 29212 is loaded as the bacteria suspension to be tested herein for the antibiotic susceptibility testing. Please refer to FIG. 9, which is colorimetric results of the antibiotic susceptibility testing of the standard strain Enterococcus 29212 diluted by the microfluidic chip of FIG. 1. […]
as §1, with “However, a bacterial suspension to be tested of Test 2 is the bacterial suspension containing E. faecium (vancomycin-resistant Enterococcus).” left out

E. faecium (vanB) [9] = test: Microfluidic system of Embodiment 1 antibiotic susceptibility testing (Test 3); assay type: cell-based; settings: Enterococcus faecium, incubation time 19 hours
Description: as §3, §4
(§5) In Test 3, the antibiotic solution, the dilution mode and the operation of the microfluidic system are the as Test 1. […] In particular, a genotype of the vancomycin-resistant Enterococcus in Test 3 is vanB, and a minimum inhibitory concentration thereof is determined by the conventional method (E-Test®) to be 8 μg/mL.

E. gallinarum (vanC1) [10] = test: Microfluidic system of Embodiment 1 antibiotic susceptibility testing (Test 4); assay type: cell-based; settings: Enterococcus gallinarum, incubation time 16 hours
Description: as §3
as §4, with “testing.” for “testing. Please refer to FIG. 9, which is colorimetric results of the antibiotic susceptibility testing of the standard strain Enterococcus 29212 diluted by the microfluidic chip of FIG. 1.”
as §5, with “4,” for “3,”, “4” for “3”, “vanC1,” for “vanB,”, “3” for “8”, “μg/mL. The incubation time and the determined minimum inhibitory concentration of E. gallinarum (vanC1) in Test 4 are listed in Table 1.” for “μg/mL.”

E. casseliflavus (vanC2) [11] = test: Microfluidic system of Embodiment 1 antibiotic susceptibility testing (Test 5); assay type: cell-based; settings: Enterococcus casseliflavus, incubation time 17 hours
Description: as §3
as §4, with “testing.” for “testing. Please refer to FIG. 9, which is colorimetric results of the antibiotic susceptibility testing of the standard strain Enterococcus 29212 diluted by the microfluidic chip of FIG. 1.”
as §2, with “However, a bacterial suspension to be tested of Test 5 is the bacterial suspension containing E. casseliflavus (vancomycin-resistant Enterococcus).” left out

| SMILES | minimum inhibitory concentration alone (denominator of the FIC equation) [1] | minimum inhibitory concentration in combination (vancomycin + ceftazidime) [1] | MIC [2] | MIC (E. faecium (vanA) [3]) | MIC (E. faecium (vanB) [4]) | MIC (E. gallinarum (vanC1) [5]) | MIC (E. casseliflavus (vanC2) [6]) | susceptibility of the strain according to the CLSI guidelines [7] | MIC ([7]; 37° C. for 24 hours, live bacteria green fluorescence, read-out: minimum inhibitory concentration by fluorescent staining) | MIC ([7]; colorimetric (phenol red), incubation time 20 hours, read-out: MIC (Microfluidic system of Embodiment 1)) | MIC (Microfluidic system of Embodiment 1) ([7]; colorimetric (phenol red), incubation time 20 hours) | MIC (E. faecium (vanA) [8]) | MIC (E. faecium (vanB) [9]) | MIC (E. gallinarum (vanC1) [10]) | MIC (E. casseliflavus (vanC2) [11]) |
| --- | --- | --- | --- | --- | --- | --- | --- | --- | --- | --- | --- | --- | --- | --- | --- |
| CC(C)(O/N=C(\C(=O)N[C@@H]1C(=O)N2C(C(=O)[O-])=C(C[n+]3ccccc3)CS[C@H]12)c1csc(N)n1)C(=O)O [ceftazidime] | > 256 | 2 µg/mL | – | – | – | – | – | – | – | – | – | – | – | – | – |
| CN[C@H](CC(C)C)C(=O)N[C@H]1C(=O)N[C@@H](CC(N)=O)C(=O)N[C@H]2C(=O)N[C@H]3C(=O)N[C@H](C(=O)N[C@H](C(=O)O)c4cc(O)cc(O)c4-c4cc3ccc4O)[C@H](O)c3ccc(c(Cl)c3)Oc3cc2cc(c3O[C@@H]2O[C@H](CO)[C@@H](O)[C@H](O)[C@H]2O[C@H]2C[C@](C)(N)[C@H](O)[C@H](C)O2)Oc2ccc(cc2Cl)[C@H]1O [vancomycin] | 3 | 4 µg/mL | 4 µg/mL (≈ 2.76 µM) | 32 µg/mL (≈ 22.1 µM) | 8 µg/mL (≈ 5.52 µM) | 3 µg/mL (≈ 2.07 µM) | 4 µg/mL (≈ 2.76 µM) | susceptible | 4 µg/mL (≈ 2.76 µM) | 4 µg/mL (≈ 2.76 µM) | 4 ± 0 µg/mL | > 16 µg/mL | 4 µg/mL (≈ 2.76 µM) | 4 µg/mL (≈ 2.76 µM) | 6 µg/mL (≈ 4.14 µM) |
